Results on three molecules are retold here after patent US20220142960A1, “Compositions and Methods for Treating Metabolic Disorders” (VeroScience LLC, priority 2013, published 2022).

Each structure is given as a SMILES string.

Type in all cases: in vivo, rat
The test system of test [1] is insulin resistant rats on a high fat diet. Kind of test: Dopamine infusion into the SCN of high fat fed SHR rats, GTT. The following applies: male SHR rats on high fat diet. On the procedure: Male SHR rats at approximately 12 weeks of age were fed a high fat diet for one month and were then treated with either dopamine or vehicle for a three minute period at the offset of light (14 hour daily photoperiod) via a cannula directed to the SCN daily for 2 weeks while maintained on the high fat diet. At the end of the treatment period, animals were subjected to a glucose tolerance test (GTT) (3 g/kg of glucose) and plasma samples were taken before and at 30, 60, 90, and 120 minutes after glucose treatment. Plasma samples were analyzed for glucose and insulin levels.

Test [2] concerns insulin resistant high fat fed rats. The experiment in a line: NMDA agonist directed to the SuMN in high fat fed rats, GTT. Conditions: female Sprague Dawley HFD-sensitive rats, cannula to SuMN daily for 2 weeks at offset of light, relative to vehicle, FIG. 6. On the procedure: Treatment of insulin resistant high fat fed rats with an NMDA agonist directed to the SuMN improved insulin resistance and glucose intolerance. Female Sprague Dawley rats were fed a high fat diet for one month and those animals most sensitive to the diet (those gaining the most weight in the group) were then treated with either an NMDA agonist or vehicle for a three minute period at the offset of light (14 hour daily photoperiod) via a cannula directed to the SuMN daily for 2 weeks while maintained on the high fat diet. At the end of the treatment period, animals were subjected to a glucose tolerance test (GTT) (3 g/kg of glucose) and plasma samples were taken before and at 30, 60, 90, and 120 minutes after glucose treatment. Plasma samples were analyzed for glucose and insulin levels.

In test [3] the test system is high fat diet-sensitive rats (HF-S). The experiment in a line: Chronic intra-SuMN AMPA treatment of high fat diet-sensitive rats, GTT. On the procedure:
(§1) In separate protocols, female Sprague-Dawley high fat diet-resistant rats (HF-R) (16 animals) were fed high fat diets for 4 months or female Sprague-Dawley high fat diet-sensitive rats (HF-S) (16 animals) were fed high fat diets for 3 months. Following initial feeding protocols, AMPA (0.03 mM/0.5 µl) or vehicle was microinjected into SuMN daily for 13 (HF-R animals) or 14 d (HF-S) at the onset of locomotor activity. At the end of AMPA treatment, HF-R animals were sacrificed by decapitation. Trunk blood was collected for glucose and insulin analysis retroperitoneal fat mass were weighed. At the end of AMPA treatment, HF-S animals were subjected to glucose tolerance tests (GTT) and two days after GTT, were sacrificed. Trunk blood was collected for glucose and insulin analysis and retroperitoneal fat mass were weighed. Body weight and food consumption were measured daily throughout both protocols.

In test [4] the test system is high fat diet-resistant rats (HF-R). Kind of test: Chronic intra-SuMN AMPA treatment of high fat diet-resistant rats. On the procedure: as §1
The test system of the next test is dopamine neurons in SuMN. Kind of test: Microdialysis of dopamine metabolites at SCN after intra-SuMN AMPA infusion. Conditions: compared to vehicle. On the procedure: Female Sprague-Dawley rats (12) were housed in a room at constant temperature and humidity with a 14/10 light/dark cycle were fed regular diet ad libitum. Each rat was microinjected with retrograde tracer fluorogold (4%, 20 nl) to SCN and allowed to rest for 10 days. The rats were then perfused with 4% paraformaldehyde and the brains were dissected for immunohistochemistry. Dopamine neurons projecting to SCN were identified with double immunochemistry of fluorogold (FG) and tyrosine hydroxylase (TH). To verify functional connection, dopamine metabolites at SCN were measured by microdialysis in freely moving rats following infusion of AMPA (0.3 mM/0.5 µl) to SuMN.

The mark [5] stands for this setting: cannula to SCN daily for 2 weeks at offset of light, relative to vehicle, FIG. 7.
Where [6] appears, read: AMPA into SuMN daily for 13 d, versus vehicle, p<0.01.

As for `NCCc1ccc(O)c(O)c1` [dopamine], the insulin resistance entry in test [1] (setting [5]) is on record as “improved”. In test [1] (infusion directly into the SCN daily for 2 weeks), the glucose intolerance entry is “improved”.

For `CN[C@H](CC(=O)O)C(=O)O` [NMDA], in test [1] (setting [5]), the insulin resistance result is “significantly improved”, the “plasma glucose levels during the GTT” value is “significantly reduced” and the “plasma insulin levels during the GTT” value is on record as “significantly reduced”. Besides, in test [2], the insulin resistance result was “significantly improved”, the “plasma glucose levels during the GTT” value was “significantly reduced” and the “plasma insulin levels during the GTT” value is listed as “significantly reduced”.

On to `Cc1o[nH]c(=O)c1CC(N)C(=O)O` (stereo not shown) [AMPA], for which the “plasma glucose concentration during the GTT” value in test [3] (AMPA 0.03 mM/0.5 µl into SuMN daily for 14 d, compared to vehicle) was “significantly reduced”. Further, the “total area under the glucose GTT curve” value in test [3] (AMPA into SuMN daily for 14 d) is on record as “decreased”. Besides, the “basal plasma insulin level” value in test [3] (AMPA into SuMN daily for 14 d, decreased from 2.2, P<0.05) was found to be 1.15 ng/mL. Also, the “basal plasma glucose level” value in test [3] (AMPA into SuMN daily for 14 d, decreased from 114, P<0.05) came out at 106 mg/dL. In test [3] (AMPA into SuMN daily for 14 d, reduced from 13.0±1.79, p=0.018), the “Insulin resistant index (HOMA-IR)” value is given as 6.3±1.70. Besides, the body weight result in test [4] (AMPA 0.03 mM/0.5 µl into SuMN daily for 13 d at onset of locomotor activity, versus vehicle, p<0.05) is recorded as “significantly reduced”. Also, the retroperitoneal fat in test [4] (AMPA into SuMN daily for 13 d, vehicle 13.4 g) was 9.02 g. Besides, the daily food consumption in test [4] (AMPA into SuMN daily for 13 d, vehicle 17.7 g, p<0.05) is 13.7 g. In addition, the total abdominal fat in test [4] (AMPA into SuMN daily for 13 d, vehicle 19.1 g) amounted to 12.9 g. In test [4] (setting [6]), the “reduction of retroperitoneal fat” value came to 33% and the “reduction of total abdominal fat” value was determined as 32%. The “dopamine metabolite HVA at SCN area” value with dopamine neurons in SuMN (intra-SuMN AMPA infusion 0.3 mM/0.5 µl, freely moving rats, p<0.05, FIG. 1A) was “significant elevations”. Also, the “dopamine metabolite DOPAC at SCN area” value with dopamine neurons in SuMN (intra-SuMN AMPA infusion 0.3 mM/0.5 µl, freely moving rats, p<0.05, FIG. 1B) is “significant elevations”. Also, in the test with dopamine neurons in SuMN (intra-SuMN AMPA infusion, FIG. 1C), the “serotonin metabolite 5-HIAA at the SCN” value was “did produce a significant elevation”.
